Test systems include MALME-3M melanoma; HCT-15 colon; NCI-H226 lung; SNB-75 CNS; SK-MEL-5 melanoma; MOLT-4 leukemia; ACHN renal; UO-31 renal; U251 CNS; CCRF-CEM leukemia.
Common to all, as to assay: NCI tumour cell line growth inhibition, 48 h

Several values for one entry are separate records, joined by “and”; a condition that tells them apart may be missing. Equal entries are not always repeated.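 Where inhibition never reached the appropriate level, the endpoint shown equals the highest concentration tested. Otherwise, values were interpolated linearly from a five-concentration, 48-hour dose response in 96-well plates. GI50 = concentration required for 50% inhibition of growth. The concentration for full growth arrest is given as TGI.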

`COc1cc(C(C)c2cc3c(cc2OCCOCCOc2cc4c(cc2C(C)c2cc(OC)c(OC)c(OC)c2)OCO4)OCO3)cc(OC)c1OC` (stereo not drawn): the GI50 is more than 100 µM in the assay with MALME-3M melanoma; more than 10 µM with SNB-75 CNS; more than 10000 nM in the assay with SK-MEL-5 melanoma; more than 100000 nM in the assay on MOLT-4 leukemia; more than 100000 nM in the assay with ACHN renal; more than 10000 nM in the assay with UO-31 renal. Further, the GI50 is more than 100 µM with U251 CNS and more than 100000 nM in the assay with CCRF-CEM leukemia. Further, the TGI in the assay on MALME-3M melanoma is more than 100 µM; in the assay with HCT-15 colon it was more than 10 µM; in the assay with NCI-H226 lung, more than 10 µM; in the assay on SNB-75 CNS, > 10 µM and 74.8 µM; with SK-MEL-5 melanoma it was more than 100 µM; with MOLT-4 leukemia it was more than 100 µM. The TGI in the assay with ACHN renal, in the assay with UO-31 renal, in the assay on U251 CNS and with CCRF-CEM leukemia was more than 100 µM each time.
For `Cc1occc1C(=S)Nc1ccc(Cl)c(C(=O)OCC2CC2)c1`, the TGI with MALME-3M melanoma was more than 100 µM; with HCT-15 colon, more than 100 µM; in the assay with NCI-H226 lung it was more than 100 µM; with SNB-75 CNS it was 70.1 µM; with SK-MEL-5 melanoma, more than 100 µM; in the assay with MOLT-4 leukemia, more than 100 µM. The TGI is more than 100 µM in the assay on ACHN renal, more than 100 µM with UO-31 renal, more than 100 µM with U251 CNS and 91.5 µM in the assay with CCRF-CEM leukemia.
Regarding `CCCN(CCC)c1ccc(C=O)c(OC)c1`, the GI50 is 18.7 µM in the assay with MALME-3M melanoma; 24100 nM in the assay on HCT-15 colon; 28500 nM in the assay with NCI-H226 lung; 16.4 µM with SNB-75 CNS; 14500 nM in the assay with SK-MEL-5 melanoma; 11900 nM with MOLT-4 leukemia. The GI50 in the assay on ACHN renal is 21400 nM; in the assay on UO-31 renal it was 16500 nM; with U251 CNS, 28.1 µM; with CCRF-CEM leukemia, 24400 nM. Besides, the TGI was 64.6 µM with MALME-3M melanoma; more than 100 µM in the assay with HCT-15 colon; more than 100 µM in the assay with NCI-H226 lung; 95.9 µM with SNB-75 CNS; 29.3 µM in the assay on SK-MEL-5 melanoma; 40.4 µM with MOLT-4 leukemia. Also, the TGI in the assay on ACHN renal, in the assay with UO-31 renal, with U251 CNS and in the assay on CCRF-CEM leukemia was more than 100 µM each time.
As for `C/C(=C\c1ccccc1)C(O)S(=O)(=O)O` (stereo not drawn), the TGI in the assay on MALME-3M melanoma, in the assay on HCT-15 colon, in the assay on NCI-H226 lung, in the assay on SNB-75 CNS, with SK-MEL-5 melanoma and in the assay on MOLT-4 leukemia was more than 100 µM each time. The TGI in the assay on ACHN renal, with UO-31 renal, with U251 CNS and with CCRF-CEM leukemia was more than 100 µM each time.
With `COc1ncnc2c1ncn2C/C(Br)=C(\Br)CCl`, the GI50 in the assay with MALME-3M melanoma was 1.49 µM; with HCT-15 colon, 1840 nM; in the assay on NCI-H226 lung, 2820 nM; in the assay on SNB-75 CNS, 2.01 µM; in the assay on SK-MEL-5 melanoma it was 2190 nM; in the assay with MOLT-4 leukemia, 2910 nM. Moreover, the GI50 in the assay with ACHN renal is 2140 nM; in the assay on UO-31 renal it was 2410 nM; with U251 CNS it was 1.74 µM; in the assay with CCRF-CEM leukemia, 2730 nM. Further, the TGI was found to be 3.21 µM with MALME-3M melanoma; 4.16 µM in the assay with HCT-15 colon; 9.38 µM in the assay with NCI-H226 lung; 8.57 µM in the assay on SNB-75 CNS; 5.59 µM with SK-MEL-5 melanoma; 25.4 µM with MOLT-4 leukemia. In addition, the TGI in the assay on ACHN renal was determined as 4.92 µM; with UO-31 renal it was 10.6 µM; in the assay with U251 CNS, 3.64 µM; in the assay on CCRF-CEM leukemia it was 13.5 µM.
As to `CCOc1ccccc1N=C(NC(=O)CC)SC`, the GI50 in the assay with MALME-3M melanoma is more than 10 µM; in the assay on HCT-15 colon, more than 10000 nM; with NCI-H226 lung it was more than 100000 nM; in the assay with SNB-75 CNS, more than 10 µM; in the assay on MOLT-4 leukemia, more than 10000 nM; with ACHN renal, more than 100000 nM. For the same compound, the GI50 with UO-31 renal is more than 100000 nM; with U251 CNS, more than 100 µM; in the assay on CCRF-CEM leukemia, more than 10000 nM. The TGI with MALME-3M melanoma is more than 100 µM; in the assay on HCT-15 colon, more than 100 µM; in the assay with NCI-H226 lung, more than 100 µM; in the assay on SNB-75 CNS it was more than 100 µM; in the assay on SK-MEL-5 melanoma, more than 10 µM; with MOLT-4 leukemia, more than 100 µM. Also, the TGI in the assay with ACHN renal, in the assay with UO-31 renal, in the assay on U251 CNS and with CCRF-CEM leukemia was more than 100 µM in each case.
On to `Cc1ccc(S(=O)(=O)NC(C)C(=O)O)cc1` (stereo not drawn), for which the TGI in the assay on MALME-3M melanoma, with HCT-15 colon, with NCI-H226 lung, in the assay on SNB-75 CNS, in the assay on SK-MEL-5 melanoma and with MOLT-4 leukemia was more than 100 µM in each case. The TGI in the assay on ACHN renal, with UO-31 renal, with U251 CNS and with CCRF-CEM leukemia was more than 100 µM in each case. For the same compound, in the assay with CCRF-CEM leukemia, the GI50 is 47200 nM and > 100000 nM.
With `C[C@]1(O)CC(=O)[C@]2(O)C3=C(C=C[C@]2(O)C1)C(=O)c1c(O)cccc1C3=O`, the GI50 was 0.492 µM in the assay with MALME-3M melanoma; 1190 nM in the assay on HCT-15 colon; 1690 nM in the assay on NCI-H226 lung; 11.4 µM with SNB-75 CNS; 1750 nM with SK-MEL-5 melanoma; 1120 nM in the assay with MOLT-4 leukemia. The GI50 in the assay on ACHN renal was 500 nM; with UO-31 renal it was 1230 nM; with U251 CNS, 6.02 µM; in the assay on CCRF-CEM leukemia it was 342 nM. The TGI turned out to be 1.84 µM in the assay on MALME-3M melanoma; 3.08 µM with HCT-15 colon; 3.69 µM in the assay on NCI-H226 lung; 26.4 µM with SNB-75 CNS; 3.47 µM with SK-MEL-5 melanoma; 3.98 µM in the assay with MOLT-4 leukemia. The TGI is 1.73 µM in the assay with ACHN renal, 2.52 µM in the assay on UO-31 renal, 21.5 µM with U251 CNS and 3.33 µM in the assay on CCRF-CEM leukemia.
Take `CP(=O)(CCSc1ccccc1)c1ccccc1` (stereo not drawn): the TGI with MALME-3M melanoma, in the assay on HCT-15 colon, with NCI-H226 lung, with SNB-75 CNS, in the assay on SK-MEL-5 melanoma and in the assay on MOLT-4 leukemia was more than 100 µM throughout. The TGI in the assay with ACHN renal, in the assay with UO-31 renal, in the assay with U251 CNS and in the assay with CCRF-CEM leukemia was more than 100 µM throughout.
For `CCCCn1c(=O)c(/C=C/C(=O)/C=C/c2ccc(O)c(OC)c2)cc2ccc(Cl)cc21`, the GI50 is 2.14 µM in the assay on MALME-3M melanoma; 1900 nM in the assay with HCT-15 colon; 1770 nM in the assay with NCI-H226 lung; 2.26 µM in the assay on SNB-75 CNS; 1690 nM in the assay on SK-MEL-5 melanoma; 2170 nM in the assay on MOLT-4 leukemia. The GI50 in the assay with ACHN renal was 1600 nM; in the assay on UO-31 renal it was 1590 nM; with U251 CNS it was 1.59 µM; in the assay with CCRF-CEM leukemia, 2790 nM. Also, the TGI in the assay on MALME-3M melanoma stood at 4.92 µM; in the assay on HCT-15 colon, 5.94 µM; in the assay on NCI-H226 lung, 4.23 µM; with SNB-75 CNS, 6.22 µM; in the assay on SK-MEL-5 melanoma it was 3.09 µM; in the assay on MOLT-4 leukemia it was 16.3 µM. The TGI is 2.95 µM with ACHN renal, 2.93 µM in the assay with UO-31 renal, 3.08 µM in the assay on U251 CNS and 22 µM with CCRF-CEM leukemia.
With `S=C1SC2(CCCCCC2)NC2=C1CCCCC2`, the TGI in the assay on MALME-3M melanoma was more than 100 µM; with HCT-15 colon, more than 100 µM; with NCI-H226 lung it was 52.4 µM; with SNB-75 CNS it was 81.8 µM; in the assay on SK-MEL-5 melanoma, 43.2 µM; with MOLT-4 leukemia, 66.8 µM. Moreover, the TGI is more than 100 µM with ACHN renal, 60.1 µM in the assay with UO-31 renal, more than 100 µM in the assay with U251 CNS and more than 100 µM in the assay on CCRF-CEM leukemia.
As for `COc1cc2c3c(n(CCCn4cccn4)c(=O)c2cc1OC)-c1cc2c(cc1C3=O)OCO2`, the GI50 in the assay on MALME-3M melanoma is 9.4 µM; in the assay on HCT-15 colon, 14700 nM; with NCI-H226 lung, 922 nM; in the assay with SNB-75 CNS it was 1.53 µM; in the assay on SK-MEL-5 melanoma it was 1480 nM; with MOLT-4 leukemia, 351 nM. Moreover, the GI50 in the assay on ACHN renal was 396 nM; in the assay with UO-31 renal, 962 nM; in the assay on U251 CNS, 0.724 µM; in the assay with CCRF-CEM leukemia, 341 nM. Moreover, the TGI in the assay with MALME-3M melanoma was more than 96.7 µM; in the assay on HCT-15 colon, more than 100 µM; in the assay on NCI-H226 lung it was 9.51 µM; with SNB-75 CNS it was 15.4 µM; with SK-MEL-5 melanoma, 5.24 µM; with MOLT-4 leukemia it was more than 35.9 µM. In addition, the TGI in the assay on ACHN renal was 5.61 µM; in the assay with UO-31 renal it was 18.1 µM; with U251 CNS, more than 40.4 µM; in the assay on CCRF-CEM leukemia it was 2.34 µM.

Values taken from PubChem BioAssay (NCI).
